This data set can be described thus: Solubility of ivermectin in propylene glycol/oleyl alcohol (1/1) solubilizing medium. It counts as physicochemical. The settings on record: mixed propylene glycol/oleyl alcohol (1/1) solubilizing medium. From the text:
Although these prior attempts have allowed formulating ivermectin in emulsions which remain stable despite temperature and/or pH variations, it has been observed that the amount of ivermectin that could be introduced into these emulsions was limited. Specifically, at most 33% by weight of ivermectin can be fully dissolved in a mixed propylene glycol/oleyl alcohol (1/1) solubilizing medium. Beyond this concentration, ivermectin tends to crystallize in the active phase before the emulsion is prepared and/or in the resulting emulsion, optionally when subjected to freeze/thaw cycles. Increasing the amount of glycols in the emulsion would raise other issues, since the emulsion stability would be detrimentally affected and the emulsion would become too sticky to be commercially acceptable. Therefore, from a practical point of view, it has not been possible so far to formulate emulsions comprising 2% or more by weight of ivermectin, which remains fully dissolved ivermectin over the time.

For the substance ivermectin, the “Amount of ivermectin that can be fully dissolved” value was “at most 33 % by weight”.

These data come from patent US10849854B2, “Process for preparing a composition comprising a high concentration of one or more avermectins” (GALDERMA SA, priority 2015, dated 2020).
